Measurements from PMC6522510 (Nature Communications, 2019).

Assays:
Parameters in all cases: species or system AML cell lines (8); Primary HTS, single concentration about 10 uM, Cell Titer Glo viability; log10 luminescence, per cent inhibition relative to cycloheximide control
Settings in all cases: 72 h, relative to cycloheximide control, log10 luminescence; inhibitor
[1] = tested on: CMK
[2] = tested on: CHRF288-11
[3] = tested on: U937
[4] = tested on: CMS
[5] = tested on: ML-2
[6] = tested on: M07e
[7] = tested on: MV4-11
[8] = tested on: MOLM-13

Structure (SMILES) | CMK %inh [1] [%] | CHRF288-11 %inh [2] [%] | U937 %inh [3] [%] | CMS %inh [4] [%] | ML-2 %inh [5] [%] | M07e %inh [6] [%] | MV4-11 %inh [7] [%] | MOLM-13 %inh [8] [%]
C[C@@H](Oc1cc(-n2cnc3ccc(OC[C@@H](O)CO)cc32)sc1C(N)=O)c1ccccc1Cl [SJ000573335-1, U22436/41/1] | 83.74 | 63.27 | 86.31 | 71.91 | 25.64 | 110.3 | 65.42 | 82.19
Cc1ccc(NC(=O)c2ccnc(N3CCCC3)c2)cc1-c1ccc(C(=O)NCC2CC2)cc1 [SJ000573336-1, U23923/65/8] | 0.1294 | -0.1983 | 0.7829 | -0.7437 | -2.392 | -0.5333 | 1.019 | 2.702
CCCN1CCCC(c2ccc(Nc3nc(Nc4cc(F)ccc4C(N)=O)c4cc[nH]c4n3)c(OC)c2)C1 (stereo not drawn) [SJ000573337-1, U23441/128/1] | 49.26 | 108.4 | 43.81 | 31.15 | 69.05 | 41.75 | 85.37 | 102.6
CCn1c(-c2nonc2N)nc2c(C#CC(C)(C)O)ncc(OCC3CCNCC3)c21 [SJ000573338-1, N3180-49-A1] | 1.889 | -0.2898 | 25.28 | 4.398 | 1.732 | -1.564 | 8.685 | 4.413
CCn1c(-c2nonc2N)nc2c(C#CCN)ncc(OCCCN)c21 [SJ000573339-1, N3180-25-A1] | 3.187 | 1.457 | 1.188 | 4.589 | 0.8489 | -1.392 | 3.433 | 6.465
CCn1c(-c2nonc2N)nc2c(C#CC(C)(C)O)ncc(OC3CCNCC3)c21 [SJ000573340-1, N2972-34-A1] | 1.4 | 8.441 | 50.59 | 5.982 | 4.911 | 6.128 | 14.73 | 25.8
CCN(CC)Cc1ccc(Nc2nccc(-c3cnn4ncccc34)n2)cc1 [SJ000573341-1, U20497/10/4] | 90.23 | 61.01 | 77.76 | 102.8 | 56.99 | 122.1 | 77.95 | 89.9
CCn1c(-c2nonc2N)nc2ccc(F)cc21 [SJ000573344-1, U17602/50/1] | -0.9351 | 4.16 | -1.756 | -1.218 | -0.6145 | 1.126 | -0.453 | 3.561
O=C(NCC1CC1)c1ccc(-c2cccc(C(=O)NC3CC3)c2)cc1 [SJ000573345-1, R5419/155/1] | 6.153 | -1.419 | 0.894 | 0.2631 | 0.3479 | 0.9268 | 3.005 | 4.094
Cc1ccc(C(=O)NC2CCCCC2)cc1-c1ccc(C(=O)NCC2CC2)cc1 [SJ000573346-1, R5311/184/6] | 5.045 | 2.896 | 4.929 | -0.3831 | -1.695 | -0.328 | 6.399 | 6.287
Cc1ccc2c(-c3ccnc(Nc4ccc5c(c4)OCCO5)n3)c(-c3ccc(C(F)(F)F)cc3)nn2n1 [SJ000573347-1, U19201/9/2] | -1.247 | 4.555 | 1.52 | -0.8147 | -1.284 | -1.129 | -1.366 | 1.079
FC(F)(F)CNc1nccc(-c2cnn3ncccc23)n1 [SJ000573348-1, U14929/198/1] | 5.414 | 8.25 | 21.18 | 9.976 | 3.221 | 2.938 | 26.7 | 10.23
NC(=O)c1ccc2c(-c3ccnc(NCCCO)n3)c(-c3ccc(F)cc3)nn2c1 [SJ000573349-1, U15445/74/1] | 3.481 | 6.72 | 3.919 | -1.938 | 0.07673 | 8.993 | 0.006279 | 4.269
CC(=O)Nc1cccc(C#Cc2cncnc2Nc2ccc(OCc3cccc(F)c3)c(Cl)c2)n1 [SJ000573352-1, U17741/29/4] | 2.98 | -2.536 | 0.4059 | -3.127 | -1.648 | -1.039 | 2.175 | 1.614
CCc1ccc(Oc2nccc(-c3c(-c4ccc(F)cc4)ncn3C3CCNCC3)n2)cc1 [SJ000573353-1, JB42215-197B1] | 9.775 | 58.08 | 8.087 | 2.88 | 3.582 | 7.09 | 7.571 | 6.147
Cc1cc(-c2ccccn2)cc(C)c1/C=C/c1cncc(-c2nn[nH]n2)c1 [SJ000573354-1, U12068/128/1] | 0.3268 | -4.309 | 1.124 | -3.491 | -0.7476 | -1.071 | -0.7703 | 1.519
Nc1nonc1-c1nc2cnccc2n1C1CCCCC1 [SJ000573355-1, SD100950-004A1] | 8.293 | 15.53 | 17.92 | 13.87 | 31.12 | -4.008 | 40.98 | 7.234
O=C1Nc2ccccc2/C1=C/Nc1ccc2[nH]c(=O)[nH]c2c1 [SJ000573356-1, U7003/61/1] | 1.313 | 4.722 | 2.265 | 0.8831 | 0.9059 | 4.187 | 43.08 | 61.37
